Assay results published in patent US10167299B2, “1-(3-aminopropyl) substituted cyclic amine compounds, preparation method therefor, and pharmaceutical compositions and uses thereof” (SHANGHAI INSTITUTE OF MATERIA MEDICA, CHINESE ACADEMY OF …, priority 2013, dated 2019).
Converted amounts (≈) assume the structure as drawn.

Experiments:
[1] = Cytotoxicity (CC50) in TZM-bl cells; assay type: cell-based; details: human; TZM-bl cells (Table 3); read-out: CC50
[2] = system: HIV-1Ba-L virus strain; experiment: Inhibition of viral replication in PBMC infected with HIV-1Ba-L; assay type: cell-based; details: for EC50: Human immunodeficiency virus 1, PBMC; for therapeutic index (TI): PBMC cells infected with HIV-1Ba-L
Description: (§1) The virus was titrated according to the modified method of Johnson & Byington. Briefly, the HIV-1 stock solution was subject to four-fold dilution in a 96-well plate (ten gradients) sextuplicate for each gradient, while setting six control-wells. Into each well was added 100 μl (5×10^6/ml) PHA-stimulated PBMC cells and final volume per well was 200 μl. The cells were cultured at 37° C. with 5% CO2. On the third day, 100 μl of fresh RPMI-1640 complete medium was supplemented. On the seventh day, the infected supernatant was collected and lysed with 0.5% Triton X100. The p24 antigen was detected by ELISA and TCID50 of virus was calculated according to Reed & Muench method (50% Tissue culture infection dose).
(§2) The compound to be tested was subject to 5-fold dilution in 48-well plate with RPMI-1640 complete medium (containing 10% FBS). The starting concentration was 1 μM, six dilutions were obtained, and each well contained 200 μl mixture. While wells not containing drugs were set as control. Virus (MOI=0.01) was added to 5×10^6/ml of PBMC cells which have been stimulated by PHA for 72 h. After homogeneously mixed, the mixture was immediately added to 48-well plate containing diluted drug and each well was added with 200 μl of mixture. MVC was used as positive control. The cells were cultured at 37° C. with 5% CO2 for seven days (drug with the same concentration was added on the third day). The supernatant was collected, lysed and inactivated with 0.5% Triton X-100. The inhibition effect of drug on HIV-1 replication was detected using p24 antigen capture ELISA method.

[3] = system: HIV-1Ba-L virus strain; experiment: Inhibition of viral replication in HOS-CD4-CCR5 cells infected with HIV-1Ba-L; assay type: cell-based; details: for EC50: Human immunodeficiency virus 1, HOS-CD4-CCR5
Description: (§3) On the day before the test, 1×10^5/ml of HOS-CD4-CCR5 cells were inoculated in 96-well plates with 100 μl for each well. The compound to be tested was subject to 5-fold dilution in 96-well microtiter plate with DMEM complete medium (containing 10% FBS). The starting concentration was 1 μM and six dilutions were obtained. Triplicate wells were set for each dilution and each well contained 100 μl mixture. While wells not containing drugs were set as control. The supernatant was removed and 100 μl of drug was added and incubated for 2 h. Then 100 μl of HIV-1SF162 and HIV-1Ba-L were added to dilute supernatant. The cells were infected for 1 h, free virus was washed out and drug with the same final concentration was added. MVC was used as positive control. The cells were cultured at 37° C. with 5% CO2 for three days. The supernatant was collected, lysed and inactivated with 0.5% Triton X-100. The inhibition effect of drug on HIV-1 replication was detected using p24 antigen capture ELISA method.

[4] = Toxicity test of compounds on PBMC cells (MTT); assay type: cell-based; details: human; PBMC cells (Table 4)
Description: (§4) The compound to be tested was subject to 5-fold dilution in a 96-well microtiter plate with RPMI-1640 or DMEM complete medium (containing 10% FBS) (Six dilution) triplicate for each dilution and 100 μl for each well. While wells not containing drugs were set as control. Into each well was added 100 μl of 4×10^5/ml PM1, HOS-CD4-CCR5 cells or 100 μl of 5×10^6/ml PHA stimulated PBMC. The cells were cultured at 37° C. with 5% CO2 for three days (PBMC cells were cultured for seven days and 100 μl of fresh RPMI-1640 complete medium was supplemented on the third day). Cytotoxicity was tested with MTT assay. OD values were measured by ELx800 microplate reader. The detection wavelength was 570 nm, and the reference wavelength was 630 nm.

[5] = system: HIV-1SF162 virus strain; experiment: Inhibition activity on TZM-bl cells infected with HIV-1SF162; details: for EC50: Human immunodeficiency virus 1, TZM-bl; for therapeutic index (TI): TZM-bl cells infected with HIV-1SF162; for cytotoxicity in vitro and therapeutic index in words, versus positive control compound: TZM-bl cells infected with HIV-1SF162, conclusion from Table 3
[6] = system: HIV-1KM018 virus strain; experiment: Inhibition of viral replication in PBMC infected with HIV-1KM018; assay type: cell-based; details: for EC50: Human immunodeficiency virus 1, PBMC; for therapeutic index (TI): PBMC cells infected with HIV-1KM018
Description: as §1, with “On the third day, 100 μl of fresh RPMI-1640 complete medium was supplemented.” left out
as §2, with “The” for “The compound to be tested was subject to 5-fold dilution in 48-well plate with RPMI-1640 complete medium (containing 10% FBS). The”, “Virus (MOI=0.01) was added to 5×10^6/ml of PBMC cells which have been stimulated by PHA for 72 h.” left out

[7] = in vivo; details: male, rat
Description: The administration volume was 10 mL/kg and drug was formulated with DMSO/Tween 80/physiological saline (5:5:90, v/v/v). […] 2 h after dosing, the rats ate together.
At above time points, 0.3 ml of venous blood was taken from retrobulbar venous plexus of the rat and loaded into EDTA-2K anticoagulative tube. After centrifuged at 11000 rpm for 5 mm, the plasma was separated and frozen at −20° C. in a refrigerator.
The concentration of each compound in rat plasma was determined by LC/MS/MS.
The pharmacokinetic parameters after administration were calculated by using non-compartment model of WinNonlin 5.3 software (Pharsight Corporation, USA).

[8] = Toxicity test of compounds on HOS-CD4-CCR5 cells (MTT); assay type: cell-based; details: human; HOS-CD4+-CCR5 cells (Table 7)
Description: as §4

[9] = system: HIV-1SF162 virus strain; experiment: Inhibition of viral replication in HOS-CD4-CCR5 cells infected with HIV-1SF162; assay type: cell-based; details: for EC50: Human immunodeficiency virus 1, HOS-CD4-CCR5
Description: as §3

[10] = system: HIV-1SF162 virus strain; experiment: Inhibition of viral replication in PBMC infected with HIV-1SF162; assay type: cell-based; details: for EC50: Human immunodeficiency virus 1, PBMC; for therapeutic index (TI): PBMC cells infected with HIV-1SF162
Description: as §1, with “On the third day, 100 μl of fresh RPMI-1640 complete medium was supplemented.” left out
as §2, with “The” for “The compound to be tested was subject to 5-fold dilution in 48-well plate with RPMI-1640 complete medium (containing 10% FBS). The”, “Virus (MOI=0.01) was added to 5×10^6/ml of PBMC cells which have been stimulated by PHA for 72 h.” left out

[11] = molecular target: CYP1A2 (Homo sapiens (Human), UniProt P05177); experiment: CYP450 inhibition activity assay (Vivid kit) CYP1A2; assay type: in vitro ADME; details: CYP450 subtype (μM) 1A2 (IC50)
Chain of CYP1A2 (P05177 whole entry): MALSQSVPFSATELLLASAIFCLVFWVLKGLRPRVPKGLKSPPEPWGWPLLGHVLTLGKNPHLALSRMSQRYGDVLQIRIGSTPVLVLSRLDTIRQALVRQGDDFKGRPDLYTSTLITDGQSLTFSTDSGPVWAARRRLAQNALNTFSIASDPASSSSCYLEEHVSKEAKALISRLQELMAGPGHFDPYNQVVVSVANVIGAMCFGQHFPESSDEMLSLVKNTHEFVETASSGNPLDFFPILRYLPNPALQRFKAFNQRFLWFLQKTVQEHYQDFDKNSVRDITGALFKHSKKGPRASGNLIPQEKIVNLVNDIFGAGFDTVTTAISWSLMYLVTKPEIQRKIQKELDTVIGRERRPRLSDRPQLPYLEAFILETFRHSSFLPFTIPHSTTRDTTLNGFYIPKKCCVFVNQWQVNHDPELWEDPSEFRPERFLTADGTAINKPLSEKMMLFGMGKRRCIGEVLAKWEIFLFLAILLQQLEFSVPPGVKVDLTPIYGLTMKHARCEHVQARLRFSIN

SMILES | EC50 [2] | therapeutic index (TI) [2] | EC50 [3] | CC50 at 7 days [4] | EC50 [5] | therapeutic index (TI) [5] | cytotoxicity in vitro and therapeutic index in words, versus positive control compound [5] | EC50 [6] | therapeutic index (TI) [6] | bioavailability [7] | AUC(0-t) ([7]; 10 mg/kg) | AUC(0-inf) ([7]; po, 20 mg/kg) | AUC(0-t) ([7]; po, 20 mg/kg) | Cmax ([7]; po, 20 mg/kg) | MRT ([7]; po, 20 mg/kg) | Tmax ([7]; po, 20 mg/kg) | half-life ([7]; po, 20 mg/kg) | CC50 at 3 days [8] | EC50 [9] | EC50 [10] | also measured
Cc1nnc(C(C)C)n1C1CC2CCC(C1)N2CC[C@H](NC(=O)C1CCCC1)c1cccs1 (stereo partly drawn) [Compound 18, N-[(1S)-3-[exo-3-(3-isopropyl-5-methyl-4H-1,2,4-triazol-4-yl)-8-azabicyclo[3.2.1]octane-8-yl]-1-(thiophen-2-yl)propyl]cyclopentane-1-carboxamide] | 0.289 µg/mL (≈ 0.616 µM) | 2266.5 | 0.0034 µg/mL (≈ 0.00724 µM) | 345 µg/mL (≈ 735 µM) | 0.00123 µg/mL (≈ 0.00262 µM) | >162601.63 | better than positive control compound | 0.0699 µg/mL (≈ 0.149 µM) | 4935.2 | 90.5% | 1550 ng·h/mL | 3070 ng·h/mL | 2800 ng·h/mL | 690 ng/mL | 2.94 h | 2 h | 2.05 h | 507 µg/mL (≈ 1080 µM) | 0.0203 µg/mL (≈ 0.0432 µM) | 0.0927 µg/mL (≈ 0.197 µM) | CC50 [1]: > 200 µg/mL; AUC(0-inf) ([7]; iv, 10 mg/kg): 1600 ng·h/mL; AUC(0-t) ([7]; iv, 10 mg/kg): 1550 ng·h/mL; Cmax ([7]; iv, 10 mg/kg): 771 ng/mL; MRT ([7]; iv, 10 mg/kg): 1.98 h; Tmax ([7]; iv, 10 mg/kg): 0.25 h; half-life ([7]; iv, 10 mg/kg): 1.81 h; bioavailability ([7]; po, 20 mg/kg): 90.5%; therapeutic index (TI) [10]: 3721; IC50 [11]: > 25 µM
Cc1ccc([C@H](CCN2C3CCC2CC(n2c(C)nnc2C(C)C)C3)NC(=O)C2CCC(F)(F)CC2)s1 (stereo partly drawn) [Compound 29, 4,4-difluoro-N-[(1S)-3-[exo-3-(3-isopropyl-5-methyl-4H-1,2,4-triazol-4-yl)-8-azabicyclo[3.2.1]octane-8-yl]-1-(5-methylthiophen-2-yl)propyl]cyclohexane-1-carboxamide] | 0.236 µg/mL (≈ 0.442 µM) | 818.3 | 0.0219 µg/mL (≈ 0.041 µM) | > 200 µg/mL | 0.012 µg/mL (≈ 0.0225 µM) | >16666.67 | comparable with the positive control compound | 0.103 µg/mL (≈ 0.193 µM) | 1937.2 | 40.1% | 2330 ng·h/mL | 2790 ng·h/mL | 1870 ng·h/mL | 580 ng/mL | 4.79 h | 2 h | 32.8 h | > 200 µg/mL | 0.0186 µg/mL (≈ 0.0348 µM) | 0.00505 µg/mL (≈ 0.00946 µM) | CC50 at 3 days [1]: > 200 µg/mL; therapeutic index (TI) ([3]; HOS-CD4+-CCR5 cells infected with HIV-1Ba-L): >9144; AUC(0-inf) ([7]; 10 mg/kg): 2330 ng·h/mL; Cmax ([7]; 10 mg/kg): 1690 ng/mL; MRT ([7]; 10 mg/kg): 2.29 h; Tmax ([7]; 10 mg/kg): 0.25 h; half-life ([7]; 10 mg/kg): 1.6 h; IC50 [11]: > 25 µM
Cc1nnc(C(C)C)n1C1CC2CCC(C1)N2CC[C@H](NC(=O)C1CCCCC1)c1cccs1 (some centres unmarked) [Compound 16] | 0.365 µg/mL (≈ 0.754 µM) | 1301.1 | 0.0105 µg/mL (≈ 0.0216 µM) | 267 µg/mL (≈ 552 µM) | 0.0118 µg/mL (≈ 0.0244 µM) | >16963.53 | comparable with the positive control compound | 0.555 µg/mL (≈ 1.15 µM) | 481.1 | 14.8% | 5110 ng·h/mL | 1510 ng·h/mL | 1510 ng·h/mL | 631 ng/mL | 2.11 h | 0.25 h | 1.16 h | 343 µg/mL (≈ 709 µM) | 0.0427 µg/mL (≈ 0.0882 µM) | 0.455 µg/mL (≈ 0.941 µM) | CC50 [1]: > 200 µg/mL; AUC(0-inf) ([7]; iv, 10 mg/kg): 5110 ng·h/mL; AUC(0-t) ([7]; iv, 10 mg/kg): 5110 ng·h/mL; Cmax ([7]; iv, 10 mg/kg): 4320 ng/mL; MRT ([7]; iv, 10 mg/kg): 0.79 h; Tmax ([7]; iv, 10 mg/kg): 0.25 h; half-life ([7]; iv, 10 mg/kg): 0.31 h; bioavailability ([7]; po, 20 mg/kg): 14.8%; therapeutic index (TI) ([9]; HOS-CD4+-CCR5 cells infected with HIV-1SF162): 8042; therapeutic index (TI) [10]: 586.3; IC50 [11]: > 25 µM
